Results published in ChEMBL document CHEMBL5321293, “Discovery of ERD-3111 as a Potent and Orally Efficacious Estrogen Receptor PROTAC Degrader with Strong Antitumor Activity” (J Med Chem, 2023).
Active and inactive are the calls of the source. The calls are words filed in the database; no cut-off is given here.

Tests used:
[1] = Clearance in Sprague-Dawley rat at 1 mg/kg, iv and measured upto 24 hrs by LC-MS/MS analysis; conditions: in vivo
in vivo [2] = conditions: Sprague-Dawley, rat, po, 3 mg/kg
[3] = AUC in Sprague-Dawley rat at 3 mg/kg, po and measured upto 24 hrs by LC-MS/MS analysis; format: ADME, organism-based; parameters: dose 3 mg/kg, time < 24 hrs, route po; conditions: in vivo; for AUC at 24 h: Sprague-Dawley
in vivo [4] = conditions: Sprague-Dawley, rat, po, 3 mg/kg; remark: listed apart in the source
[5] = target: T1, Protein cereblon/Estrogen receptor (Homo sapiens, UniProt P03372+Q96SW2); test: Protac activity at human ERalpha in human MCF7 cells assessed as protein degradation incubated for 12 hrs by ICW blot assay; format: cell-based
Target sequence in this assay (P03372 whole entry): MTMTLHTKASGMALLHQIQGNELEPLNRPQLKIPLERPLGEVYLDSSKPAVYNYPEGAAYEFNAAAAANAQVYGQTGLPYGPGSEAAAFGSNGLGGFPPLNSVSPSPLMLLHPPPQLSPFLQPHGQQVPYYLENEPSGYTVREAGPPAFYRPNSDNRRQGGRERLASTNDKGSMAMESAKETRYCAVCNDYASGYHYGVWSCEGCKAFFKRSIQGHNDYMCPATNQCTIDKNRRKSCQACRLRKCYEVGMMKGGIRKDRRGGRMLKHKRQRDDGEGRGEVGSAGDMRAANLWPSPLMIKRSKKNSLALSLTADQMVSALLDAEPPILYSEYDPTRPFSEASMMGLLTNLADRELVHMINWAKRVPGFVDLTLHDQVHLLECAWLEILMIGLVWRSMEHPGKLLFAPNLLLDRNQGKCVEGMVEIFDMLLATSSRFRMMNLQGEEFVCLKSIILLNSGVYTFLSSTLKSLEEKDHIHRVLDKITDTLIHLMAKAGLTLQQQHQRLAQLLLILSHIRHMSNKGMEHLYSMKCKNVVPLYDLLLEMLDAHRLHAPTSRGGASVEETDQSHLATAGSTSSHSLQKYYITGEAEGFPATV
Target sequence in this assay (Q96SW2 whole entry): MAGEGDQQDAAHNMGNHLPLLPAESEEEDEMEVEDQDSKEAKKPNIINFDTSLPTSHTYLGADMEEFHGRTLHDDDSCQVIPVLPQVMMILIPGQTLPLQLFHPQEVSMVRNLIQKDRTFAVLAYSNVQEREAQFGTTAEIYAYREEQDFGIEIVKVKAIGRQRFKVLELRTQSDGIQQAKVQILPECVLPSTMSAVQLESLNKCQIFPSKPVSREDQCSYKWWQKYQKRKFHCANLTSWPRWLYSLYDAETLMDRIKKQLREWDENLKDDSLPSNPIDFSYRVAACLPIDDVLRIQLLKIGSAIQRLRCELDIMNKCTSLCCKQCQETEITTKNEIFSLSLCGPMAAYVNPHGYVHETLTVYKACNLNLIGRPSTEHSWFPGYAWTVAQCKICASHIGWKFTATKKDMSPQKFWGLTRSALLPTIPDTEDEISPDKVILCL

[6] = Volume of distribution at steady state in Sprague-Dawley rat at 1 mg/kg, iv and measured upto 24 hrs by LC-MS/MS analysis; conditions: in vivo
[7] = Half life in Sprague-Dawley rat at 3 mg/kg, po and measured upto 24 hrs by LC-MS/MS analysis; conditions: in vivo
[8] = target: T1, Protein cereblon/Estrogen receptor; test: Protac activity at human ERalpha in human MCF7 cells assessed as induction of ERalpha degradation by measuring maximum efficacy at 1 uM incubated for 12 hrs by ICW blot assay relative to control; format: cell-based
Target sequence in this assay (P03372 whole entry, looked up): as the sequence (P03372 whole entry) above
Target sequence in this assay (Q96SW2 whole entry, looked up): as the sequence (Q96SW2 whole entry) above

[9] = Plasma concentration in Sprague-Dawley rat at 3 mg/kg,po and mesured after 6 hrs by LC-MS/MS analysis; format: ADME, organism-based
[10] = Plasma concentration in Sprague-Dawley rat at 3 mg/kg,po and mesured after 24 hrs by LC-MS/MS analysis; format: ADME, organism-based
[11] = Plasma concentration in Sprague-Dawley rat at 3 mg/kg,po and mesured after 1 hrs by LC-MS/MS analysis; format: ADME, organism-based
[12] = Plasma concentration in Sprague-Dawley rat at 3 mg/kg,po and mesured after 3 hrs by LC-MS/MS analysis; format: ADME, organism-based
[13] = rat, in vivo, po, 3 mg/kg, 24 h
[14] = Downregulation of ERalpha protein expression in tumor of CB17 SCID mouse xenografted with human MCF7 cells harboring wild type ESR1 at 30 mg/kg, po qd for 3 days and measured after 24 hrs last dose by Western blot analysis relative to control; format: functional; conditions: time 3 day
[15] = Toxicity in CB17 SCID mouse xenografted with human MCF7 cells harboring wild type ESR1 assessed as body weight change at 10 mg/kg,po qd for 5 weeks; format: organism-based; conditions: in vivo, 840 h
[16] = Downregulation of ERalpha protein expression in tumor of CB17 SCID mouse xenografted with human MCF7 cells harboring wild type ESR1 at 30 mg/kg, po qd for 3 days and measured after 3 hrs last dose by Western blot analysis relative to control; format: functional; conditions: time 3 day
MCF7 [17] = test: Antitumor activity against human MCF7 cells harboring ESR1 D538G mutant xenografted in CB17 SCID mouse assessed as tumor growth inhibition at 30 mg/kg, po qd for 4 weeks and measured 1 week post last dose; format: functional, organism-based
MCF7 [18] = test: Antitumor activity against human MCF7 cells harboring wild type ESR1 xenografted in CB17 SCID mouse assessed as tumor growth inhibition at 10 mg/kg, po qd for 5 weeks; format: functional; conditions: MCF7, 840 h, read-out: TGI
MCF7 [19] = test: Antitumor activity against human MCF7 cells harboring ESR1 Y537S mutant xenografted in CB17 SCID mouse assessed as tumor growth inhibition at 30 mg/kg, po qd for 4 weeks and measured 30 days post last dose; format: functional
MCF7 [20] = test: Antitumor activity against human MCF7 cells harboring ESR1 Y537S mutant xenografted in CB17 SCID mouse assessed as tumor growth inhibition at 30 mg/kg, po qd for 4 weeks; format: functional
[21] = Toxicity in CB17 SCID mouse xenografted with human MCF7 cells harboring ESR1 Y537S mutant assessed as body weight change at 30 mg/kg,po qd for 4 weeks; format: organism-based; conditions: in vivo, 672 h
[22] = Toxicity in CB17 SCID mouse xenografted with human MCF7 cells harboring ESR1 D538G mutant assessed as body weight change at 30 mg/kg,po qd for 4 weeks; format: organism-based; conditions: in vivo, 672 h
[23] = Downregulation of ERalpha protein expression in tumor of CB17 SCID mouse xenografted with human MCF7 cells harboring ESR1 Y537S mutant at 30 mg/kg, po qd for 3 days and measured after 6 hrs last dose by Western blot analysis relative to control; format: functional; conditions: time 3 day
MCF7 [24] = test: Antitumor activity against human MCF7 cells harboring ESR1 D538G mutant xenografted in CB17 SCID mouse assessed as tumor growth inhibition at 30 mg/kg, po qd for 4 weeks; format: functional; conditions: MCF7, 672 h, read-out: TGI
[25] = Plasma concentration in Sprague-Dawley rat at 5 mg/kg,po and mesured after 3 hrs by LC-MS/MS analysis; format: ADME, organism-based
[26] = Plasma concentration in Sprague-Dawley rat at 5 mg/kg,po and mesured after 1 hrs by LC-MS/MS analysis; format: ADME, organism-based
[27] = Plasma concentration in Sprague-Dawley rat at 5 mg/kg,po and mesured after 6 hrs by LC-MS/MS analysis; format: ADME, organism-based
[28] = Cmax in ICR mouse at 3 mg/kg, po and measured upto 24 hrs by LC-MS/MS analysis; format: ADME, organism-based; parameters: dose 3 mg/kg, time < 24 hrs, route po; conditions: in vivo
[29] = Volume of distribution at steady state in ICR mouse at 1 mg/kg, iv and measured upto 24 hrs by LC-MS/MS analysis; format: ADME, organism-based; conditions: in vivo, read-out: Vdss
[30] = Half life in ICR mouse at 3 mg/kg, po and measured upto 24 hrs by LC-MS/MS analysis; format: ADME, organism-based; conditions: in vivo
[31] = Oral bioavailability in ICR mouse at 3 mg/kg and measured upto 24 hrs by LC-MS/MS analysis; format: ADME, organism-based; conditions: in vivo
[32] = AUC in ICR mouse at 3 mg/kg, po and measured upto 24 hrs by LC-MS/MS analysis; format: ADME, organism-based; parameters: dose 3 mg/kg, time < 24 hrs, route po; conditions: in vivo
[33] = Clearance in ICR mouse at 1 mg/kg, iv and measured upto 24 hrs by LC-MS/MS analysis; format: ADME, organism-based; conditions: in vivo
[34] = Plasma protein binding in mouse; format: ADME, cell-free; conditions: read-out: PPB (converted)
[35] = Plasma protein binding in monkey; format: ADME, cell-free, Macaca mulatta; conditions: rhesus monkey, read-out: PPB (converted)
[36] = Plasma protein binding in dog; format: ADME, cell-free, Canis lupus familiaris; conditions: read-out: PPB (converted)
[37] = Plasma protein binding in human; format: ADME, cell-free; conditions: read-out: PPB (converted)
[38] = Plasma protein binding in rat; format: ADME, cell-free; conditions: read-out: PPB (converted)

| Compound | clearance at 24 h [1] | bioavailability at 24 h (in vivo [2]) | AUC at 24 h [3] | Cmax at 24 h (in vivo [4]) | DC50 [5] | Vd at 24 h [6] | half-life at 24 h [7] | Emax [8] | other results |
| --- | --- | --- | --- | --- | --- | --- | --- | --- | --- |
| C[C@@H]1Cc2c(ccc3[nH]ncc23)[C@@H](c2ccc(N3CCC4(CCN(C(=O)CN5Cc6cc7c(cc6C5)C(=O)N(C5CCC(=O)NC5=O)C7=O)CC4)CC3)cn2)N1CC(F)(F)F (some centres undefined) | 27 mL/min/kg | 14% | 243 ng·h/mL | 51.8 ng/mL | 3.8 nM | 3.7 L/kg | 2.3 h | 107% |  |
| O=C1CCC(N2C(=O)c3cc4c(cc3C2=O)CN(C2CCN(C(=O)C3CCN(c5ccc([C@@H]6c7ccc(O)cc7CC[C@@H]6c6ccccc6)cc5)CC3)CC2)C4)C(=O)N1 (some centres undefined) | 23.1 mL/min/kg | 10% | 206 ng·h/mL | 40.6 ng/mL | 1.6 nM | 2 L/kg | 2.7 h | 95% |  |
| C[C@@H]1Cc2c([nH]c3ccccc23)[C@@H](c2c(F)cc(N3CCC4(CCN(C(=O)CN5Cc6cc7c(cc6C5)C(=O)N(C5CCC(=O)NC5=O)C7=O)CC4)CC3)cc2F)N1CC(C)(C)F (some centres undefined) |  |  |  |  | 0.8 nM |  |  | 83% | concentration at 6 h [9]: 8.3 ng/mL; concentration at 24 h [10]: 4 ng/mL; concentration at 1 h [11]: 7.9 ng/mL; concentration at 3 h [12]: 8.2 ng/mL |
| C[C@@H]1Cc2c([nH]c3ccccc23)[C@@H](c2c(F)cc(N3CCC4(CCN(C(=O)CN5Cc6cc7c(cc6C5)C(=O)N(C5CCC(=O)NC5=O)C7=O)CC4)CC3)cc2F)N1CC(F)(F)CO (some centres undefined) |  |  |  |  | 0.1 nM |  |  | 97% | concentration at 6 h [9]: 3 ng/mL; concentration at 1 h [11]: 9.3 ng/mL; concentration at 3 h [12]: 6.6 ng/mL |
| O=C1CCC(N2C(=O)c3cc4c(cc3C2=O)CN(CC2CCN(CC3CCN(c5ccc([C@@H]6c7ccc(O)cc7CC[C@@H]6c6ccccc6)cc5)CC3)CC2)C4)C(=O)N1 (some centres undefined) |  |  |  | 24.9 ng/mL | 4.3 nM | 55.4 L/kg | 16 h | 79% | F [13]: 36%; AUC ([3]; 24 h): 399 ng·h/mL |
| O=C1CC[C@H](N2Cc3cc(N4CCN(CC5CCN(c6ccc([C@@H]7c8ccc(O)cc8CC[C@@H]7c7ccccc7)cc6)CC5)CC4)ccc3C2=O)C(=O)N1 [VEPDEGESTRANT] |  |  |  |  |  |  |  |  | Activity [14]: 78%; Activity [15]: Non-Toxic; Activity [16]: 83%; Activity (MCF7 [17]): Active; inhibition in vivo at 10 mg/kg (MCF7 [18]): 87%; Activity (MCF7 [19]): Active; Activity (MCF7 [20]): Active; Activity [21]: Non-Toxic; Activity [22]: Non-Toxic; Activity [23]: 77%; inhibition in vivo at 30 mg/kg (MCF7 [24]): 47% |
| C[C@@H]1Cc2c([nH]c3ccccc23)[C@@H](c2c(F)cc(N3CCC4(CCN(C(=O)CN5Cc6cc7c(cc6C5)C(=O)N(C5CCC(=O)NC5=O)C7=O)CC4)CC3)cc2F)N1CC(F)F (some centres undefined) |  |  |  |  | 0.8 nM |  |  | 106% | concentration at 3 h [25]: 14 ng/mL; concentration at 1 h [26]: 8.3 ng/mL; concentration at 6 h [27]: 10.3 ng/mL |
| O=C1CCC(N2C(=O)c3cc4c(cc3C2=O)CN(C2CCN(CC3CCN(c5ccc([C@@H]6c7ccc(O)cc7CC[C@@H]6c6ccccc6)cc5)CC3)CC2)C4)C(=O)N1 (some centres undefined) | 25.7 mL/min/kg | 30% | 552 ng·h/mL | 54.6 ng/mL | 2.3 nM | 8.8 L/kg | 4 h | 84% | Cmax [28]: 93.3 ng/mL; Vd [29]: 16.2 L/kg; half-life [30]: 9.8 h; bioavailability [31]: 58%; AUC at 24 h [32]: 1480 ng·h/mL; clearance [33]: 14.2 mL/min/kg |
| CN1Cc2cc3c(cc2C1)C(=O)N(C1CCC(=O)NC1=O)C3=O (centres undefined) | 29.2 mL/min/kg | 70% | 1150 ng·h/mL | 228 ng/mL |  | 5 L/kg | 1.8 h |  | fraction unbound [34]: 0.737; fraction unbound [35]: 0.856; fraction unbound [36]: 0.83; fraction unbound [37]: 0.875; fraction unbound [38]: 0.635 |
| O=C1CCC(N2C(=O)c3cc4c(cc3C2=O)CN(CC(=O)N2CCC3(CC2)CCN(c2ccc([C@@H]5c6ccc(O)cc6CC[C@@H]5c5ccccc5)cc2)CC3)C4)C(=O)N1 (some centres undefined) | 20 mL/min/kg | 13% | 328 ng·h/mL | 69.5 ng/mL | 5.5 nM | 1.6 L/kg | 2.5 h | 90% | Cmax [28]: 146 ng/mL; Vd [29]: 2.2 L/kg; half-life [30]: 3.1 h; bioavailability [31]: 35%; AUC at 24 h [32]: 550 ng·h/mL; clearance [33]: 31 mL/min/kg |
